# According to PubChem BioAssay AID2060882 (Molecular Pharmacology Branch, DTP, NCI, 2025):
# Test system: 898857-211-R-J1-PDC complex spheroids, growth % test/control
# Assay: Anticancer human tumor 898857-211-R-J1-PDC patient-derived melanoma cell line growth inhibition [RAS]
# Settings: for IC50: curve of first compound; for viability, T/C: stronger effect = lower value
# Procedure, shortened: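 Agents were tested in combination matrices in half-log decrements from a top concentration at or near clinical Cmax (10 microM if undetermined). Targets were multi-cell spheroids of tumour lines plus HUVEC and MSC stromal cells.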
# [1] = second compound 0.00316 µM, first compound 0.0316 µM
# [2] = second compound 0.00316 µM, first compound 0.1 µM
# [3] = second compound 0.00316 µM, first compound 0.316 µM
# [4] = second compound 0.00316 µM, first compound 1 µM
# [5] = second compound 0.00316 µM, first compound 3.16 µM
# [6] = second compound 0.00316 µM, first compound 10 µM
# [7] = second compound 0.01 µM, first compound 0.0316 µM
# [8] = second compound 0.01 µM, first compound 0.1 µM
# [9] = second compound 0.01 µM, first compound 0.316 µM
# [10] = second compound 0.01 µM, first compound 1 µM
# [11] = second compound 0.01 µM, first compound 3.16 µM
# [12] = second compound 0.01 µM, first compound 10 µM
# [13] = second compound 0.0316 µM, first compound 0.0316 µM
# [14] = second compound 0.0316 µM, first compound 0.1 µM
# [15] = second compound 0.0316 µM, first compound 0.316 µM
# [16] = second compound 0.0316 µM, first compound 1 µM
# [17] = second compound 0.0316 µM, first compound 3.16 µM
# [18] = second compound 0.0316 µM, first compound 10 µM
# [19] = second compound 0.1 µM, first compound 0.0316 µM
# [20] = second compound 0.1 µM, first compound 0.1 µM
# [21] = second compound 0.1 µM, first compound 0.316 µM
# [22] = second compound 0.1 µM, first compound 1 µM
# [23] = second compound 0.1 µM, first compound 3.16 µM
# [24] = second compound 0.1 µM, first compound 10 µM
# [25] = second compound 0.316 µM, first compound 0.0316 µM
# [26] = second compound 0.316 µM, first compound 0.1 µM
# [27] = second compound 0.316 µM, first compound 0.316 µM
# [28] = second compound 0.316 µM, first compound 1 µM
# [29] = second compound 0.316 µM, first compound 3.16 µM
# [30] = second compound 0.316 µM, first compound 10 µM
# [31] = second compound 1 µM, first compound 0.0316 µM
# [32] = second compound 1 µM, first compound 0.1 µM
# [33] = second compound 1 µM, first compound 0.316 µM
# [34] = second compound 1 µM, first compound 1 µM
# [35] = second compound 1 µM, first compound 3.16 µM
# [36] = second compound 1 µM, first compound 10 µM
# 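Further: spheroids exposed to compound for seven days before readout.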
# 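Wherever viability, T/C is given: 100% = DMSO vehicle control wells.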
smiles,measurement,setting,value
CC1(O)CCCC1n1c(=O)c(C(F)F)cc2cnc(NC3CCN(S(C)(=O)=O)CC3)nc21 (stereo unspecified) + C=CC(=O)N1CCN(c2nc(OCC3CCCN3C)nc3c(F)c(-c4nc(N)cc(C)c4C(F)(F)F)c(Cl)cc23)C(C)C1,IC50,second compound 0.00316 µM,228 nM
same,IC50,second compound 0.01 µM,300 nM
same,IC50,second compound 0.0316 µM,252 nM
same,IC50,second compound 0.1 µM,286 nM
same,IC50,second compound 0.316 µM,315 nM
same,IC50,second compound 1 µM,230 nM
same,"viability, T/C",[1],103%
same,"viability, T/C",[2],57.7%
same,"viability, T/C",[3],45.6%
same,"viability, T/C",[4],43.5%
same,"viability, T/C",[5],47.1%
same,"viability, T/C",[6],19.7%
same,"viability, T/C",[7],75.3%
same,"viability, T/C",[8],61%
same,"viability, T/C",[9],39%
same,"viability, T/C",[10],44.9%
same,"viability, T/C",[11],39.7%
same,"viability, T/C",[12],17.4%
same,"viability, T/C",[13],87.6%
same,"viability, T/C",[14],57.1%
same,"viability, T/C",[15],42.4%
same,"viability, T/C",[16],45.6%
same,"viability, T/C",[17],43.7%
same,"viability, T/C",[18],19.3%
same,"viability, T/C",[19],92.1%
same,"viability, T/C",[20],55.5%
same,"viability, T/C",[21],47.9%
same,"viability, T/C",[22],46.1%
same,"viability, T/C",[23],47.7%
same,"viability, T/C",[24],18.6%
same,"viability, T/C",[25],109%
same,"viability, T/C",[26],67%
same,"viability, T/C",[27],46%
same,"viability, T/C",[28],44.7%
same,"viability, T/C",[29],45.2%
same,"viability, T/C",[30],17.5%
same,"viability, T/C",[31],115%
same,"viability, T/C",[32],59.5%
same,"viability, T/C",[33],46.3%
same,"viability, T/C",[34],36%
same,"viability, T/C",[35],42.8%
same,"viability, T/C",[36],10.9%
CCN1CCN(Cc2ccc(Nc3ncc(F)c(-c4cc(F)c5nc(C)n(C(C)C)c5c4)n3)nc2)CC1 + C=CC(=O)N1CCN(c2nc(OCC3CCCN3C)nc3c(F)c(-c4nc(N)cc(C)c4C(F)(F)F)c(Cl)cc23)C(C)C1,IC50,second compound 0.00316 µM,366 nM
same,IC50,second compound 0.01 µM,313 nM
same,IC50,second compound 0.0316 µM,377 nM
same,IC50,second compound 0.1 µM,490 nM
same,IC50,second compound 0.316 µM,> 1000 nM
same,IC50,second compound 1 µM,309 nM
same,"viability, T/C","second compound 0.00316 µM, first compound 0.00316 µM",106%
same,"viability, T/C","second compound 0.00316 µM, first compound 0.01 µM",106%
same,"viability, T/C",[1],95.4%
same,"viability, T/C",[2],72.2%
same,"viability, T/C",[3],52.4%
same,"viability, T/C",[4],41.2%
same,"viability, T/C","second compound 0.01 µM, first compound 0.00316 µM",101%
same,"viability, T/C","second compound 0.01 µM, first compound 0.01 µM",106%
same,"viability, T/C",[7],86.6%
same,"viability, T/C",[8],80.2%
same,"viability, T/C",[9],45.7%
same,"viability, T/C",[10],40.2%
same,"viability, T/C","second compound 0.0316 µM, first compound 0.00316 µM",121%
same,"viability, T/C","second compound 0.0316 µM, first compound 0.01 µM",102%
same,"viability, T/C",[13],83.4%
same,"viability, T/C",[14],77%
same,"viability, T/C",[15],45.6%
same,"viability, T/C",[16],39.2%
same,"viability, T/C","second compound 0.1 µM, first compound 0.00316 µM",118%
same,"viability, T/C","second compound 0.1 µM, first compound 0.01 µM",96.4%
same,"viability, T/C",[19],98.2%
same,"viability, T/C",[20],79.2%
same,"viability, T/C",[21],56.4%
same,"viability, T/C",[22],36.3%
same,"viability, T/C","second compound 0.316 µM, first compound 0.00316 µM",112%
same,"viability, T/C","second compound 0.316 µM, first compound 0.01 µM",117%
same,"viability, T/C",[25],91.8%
same,"viability, T/C",[26],64.8%
same,"viability, T/C",[27],59%
same,"viability, T/C",[28],50.9%
same,"viability, T/C","second compound 1 µM, first compound 0.00316 µM",122%
same,"viability, T/C","second compound 1 µM, first compound 0.01 µM",114%
same,"viability, T/C",[31],102%
same,"viability, T/C",[32],67.4%
same,"viability, T/C",[33],53.8%
same,"viability, T/C",[34],38%
C[C@@H](NC(=O)c1ncnc(N)c1Cl)c1ncc(C(=O)Nc2cc(C(F)(F)F)c(Cl)cn2)s1 + C=CC(=O)N1CCN(c2nc(OCC3CCCN3C)nc3c(F)c(-c4nc(N)cc(C)c4C(F)(F)F)c(Cl)cc23)C(C)C1,IC50,second compound 0.00316 µM,5850 nM
same,IC50,second compound 0.01 µM,5330 nM
same,IC50,second compound 0.0316 µM,5770 nM
same,IC50,second compound 0.1 µM,5340 nM
same,IC50,second compound 0.316 µM,6670 nM
same,IC50,second compound 1 µM,5120 nM
same,"viability, T/C",[1],127%
same,"viability, T/C",[2],120%
same,"viability, T/C",[3],111%
same,"viability, T/C",[4],80.8%
same,"viability, T/C",[5],63.6%
same,"viability, T/C",[6],40%
same,"viability, T/C",[7],124%
same,"viability, T/C",[8],116%
same,"viability, T/C",[9],103%
same,"viability, T/C",[10],90.9%
same,"viability, T/C",[11],68.5%
same,"viability, T/C",[12],27.7%
same,"viability, T/C",[13],130%
same,"viability, T/C",[14],123%
same,"viability, T/C",[15],112%
same,"viability, T/C",[16],89.3%
same,"viability, T/C",[17],71.2%
same,"viability, T/C",[18],32.6%
same,"viability, T/C",[19],124%
same,"viability, T/C",[20],110%
same,"viability, T/C",[21],118%
same,"viability, T/C",[22],92.1%
same,"viability, T/C",[23],61.7%
same,"viability, T/C",[24],36.8%
same,"viability, T/C",[25],123%
same,"viability, T/C",[26],135%
same,"viability, T/C",[27],114%
same,"viability, T/C",[28],96.3%
same,"viability, T/C",[29],70.8%
same,"viability, T/C",[30],39.1%
same,"viability, T/C",[31],132%
same,"viability, T/C",[32],136%
same,"viability, T/C",[33],111%
same,"viability, T/C",[34],98.5%
same,"viability, T/C",[35],57.5%
same,"viability, T/C",[36],36.7%
